Data taken from ChEMBL document CHEMBL2016545, “Discovery of S-777469: an orally available CB2 agonist as an antipruritic agent” (Bioorg Med Chem Lett, 2012).

Tests used:
Cannabinoid receptor 2 [1] = target: T1, Cannabinoid receptor 2 (Homo sapiens, UniProt P34972); experiment: Agonist activity at human CB2 receptor expressed in CHO cells assessed as inhibition of forskolin-induced cAMP release after 45 mins; format: functional, cell-based
Cannabinoid receptor 1 [2] = target: T2, Cannabinoid receptor 1 (Homo sapiens, UniProt P21554); experiment: Agonist activity at human CB1 receptor expressed in CHO cells assessed as inhibition of forskolin-induced cAMP release after 25 mins; format: functional, cell-based
Cannabinoid receptor 2 [3] = target: T1, Cannabinoid receptor 2; experiment: Displacement of [3H]-CP55940 from human recombinant CB2 receptor after 60 mins
Cannabinoid receptor 1 [4] = target: T2, Cannabinoid receptor 1; experiment: Displacement of [3H]-CP55940 from human recombinant CB1 receptor after 60 mins
[5] = Volume of distribution at steady state in beagle dog at 3 mg/kg, iv; format: ADME, organism-based, Canis lupus familiaris; set-up: dose 3 mg/kg, route intravenous; conditions: in vivo, read-out: Vdss
[6] = Half life in cynomolgus monkey at 10 mg/kg, po; format: ADME, organism-based, Macaca fascicularis; set-up: dose 10 mg/kg, route oral; conditions: in vivo
[7] = Oral bioavailability in rat at 10 mg/kg; format: ADME, organism-based; conditions: in vivo
[8] = Half life in rat at 10 mg/kg, po; format: ADME, organism-based; set-up: dose 10 mg/kg, route oral; conditions: in vivo
[9] = Clearance in rat at 3 mg/kg, iv; format: ADME, organism-based; set-up: dose 3 mg/kg, route intravenous; conditions: in vivo
[10] = Volume of distribution at steady state in cynomolgus monkey at 3 mg/kg, iv; format: ADME, organism-based, Macaca fascicularis; set-up: dose 3 mg/kg, route intravenous; conditions: in vivo, read-out: Vdss
[11] = Oral bioavailability in beagle dog at 10 mg/kg; format: ADME, organism-based, Canis lupus familiaris; conditions: in vivo
[12] = Half life in beagle dog at 10 mg/kg, po; format: ADME, organism-based, Canis lupus familiaris; set-up: dose 10 mg/kg, route oral; conditions: in vivo
Mus musculus [13] = experiment: Antipruritic activity in ICR mouse assessed as inhibition of compound 48/80-induced scratching at 10 mg/kg, po measured after 30 mins; format: functional; conditions: 0.5 h
[14] = Volume of distribution at steady state in rat at 3 mg/kg, iv; format: ADME, organism-based; set-up: dose 3 mg/kg, route intravenous; conditions: in vivo, read-out: Vdss
Mus musculus [15] = experiment: Antipruritic activity in ICR mouse assessed as inhibition of compound 48/80-induced scratching at 3 mg/kg, po measured after 30 mins; format: functional; conditions: 0.5 h
Mus musculus [16] = experiment: Antipruritic activity in ICR mouse assessed as inhibition of compound 48/80-induced scratching at 1 mg/kg, po measured after 30 mins; format: functional; conditions: 0.5 h
[17] = Clearance in beagle dog at 3 mg/kg, iv; format: ADME, organism-based, Canis lupus familiaris; set-up: dose 3 mg/kg, route intravenous; conditions: in vivo
[18] = Oral bioavailability in cynomolgus monkey at 10 mg/kg; format: ADME, organism-based, Macaca fascicularis; conditions: in vivo
[19] = Clearance in cynomolgus monkey at 3 mg/kg, iv; format: ADME, organism-based, Macaca fascicularis; set-up: dose 3 mg/kg, route intravenous; conditions: in vivo
Mus musculus [20] = species: Mus musculus; experiment: animal or person; conditions: ICR, po, 0.5 h, read-out: INH
Mus musculus [21] = experiment: Neurotoxicity in ICR mouse assessed as psychoactivity at 0.1 to 1 mg/kg, iv; format: toxicity, organism-based; set-up: dose 0.1-1 mg/kg, route intravenous; conditions: in vivo

T2 sequence (P21554 whole entry): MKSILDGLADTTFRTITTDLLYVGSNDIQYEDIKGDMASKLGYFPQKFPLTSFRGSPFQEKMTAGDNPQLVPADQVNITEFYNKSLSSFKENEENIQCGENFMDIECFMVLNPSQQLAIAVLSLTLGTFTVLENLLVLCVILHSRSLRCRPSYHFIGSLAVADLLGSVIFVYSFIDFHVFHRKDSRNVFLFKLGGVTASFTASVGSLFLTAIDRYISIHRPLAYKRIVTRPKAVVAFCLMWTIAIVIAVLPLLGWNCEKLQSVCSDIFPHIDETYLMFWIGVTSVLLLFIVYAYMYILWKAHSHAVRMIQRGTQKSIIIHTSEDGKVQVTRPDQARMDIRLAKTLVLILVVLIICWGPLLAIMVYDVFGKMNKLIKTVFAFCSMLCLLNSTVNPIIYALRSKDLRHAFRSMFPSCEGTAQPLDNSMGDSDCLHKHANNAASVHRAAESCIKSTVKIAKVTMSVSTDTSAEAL
T1 sequence (P34972 whole entry): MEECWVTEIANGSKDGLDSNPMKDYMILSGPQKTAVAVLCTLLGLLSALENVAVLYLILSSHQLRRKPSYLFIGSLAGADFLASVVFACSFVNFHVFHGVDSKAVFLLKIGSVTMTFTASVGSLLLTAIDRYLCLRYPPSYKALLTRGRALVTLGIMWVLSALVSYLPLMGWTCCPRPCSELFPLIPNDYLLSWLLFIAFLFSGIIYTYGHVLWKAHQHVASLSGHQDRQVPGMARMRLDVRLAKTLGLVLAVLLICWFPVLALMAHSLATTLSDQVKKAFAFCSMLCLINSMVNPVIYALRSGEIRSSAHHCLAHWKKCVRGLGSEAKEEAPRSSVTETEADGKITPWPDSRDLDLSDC

SMILES	IC50 (Cannabinoid receptor 2 [1]) [nM]	IC50 (Cannabinoid receptor 1 [2]) [nM]	Ki (Cannabinoid receptor 2 [3]) [nM]	Ki (Cannabinoid receptor 1 [4]) [µM]	also measured
O=C(NC1(C(=O)O)CCCC1)c1cc2c(n(CC3CCCCC3)c1=O)CCCCCC2	14	113	56	0.258	–
CCc1c(C)cc(C(=O)NC2(C(=O)O)CCCCC2)c(=O)n1Cc1ccc(F)cc1 [S-777469]	–	> 2000	–	4.07	Vd [5]: 1.23 L/kg; half-life [6]: 446 min; bioavailability [7]: 37.9%; half-life [8]: 372 min; clearance [9]: 11.3 mL/min/kg; Vd [10]: 0.87 L/kg; bioavailability [11]: 18.7%; half-life [12]: 768 min; inhibition in vivo at 10 mg/kg (Mus musculus [13]): 59%; Vd [14]: 1.9 L/kg; inhibition in vivo at 3 mg/kg (Mus musculus [15]): 48%; inhibition in vivo at 1 mg/kg (Mus musculus [16]): 46%; clearance [17]: 6 mL/min/kg; bioavailability [18]: 9.01%; clearance [19]: 13.6 mL/min/kg
O=C(NC1(C(=O)O)CCCCCCC1)c1cc2c(n(CC3CCCCC3)c1=O)CCCCCC2	1	–	–	–	–
O=C(O)CNC(=O)c1cc2c(n(CC3CCCCC3)c1=O)CCCCCC2	–	–	177	1.06	–
O=C(NC1(C(=O)O)CCCCC1)c1cc2c(n(Cc3ccc(F)cc3)c1=O)CCCCCC2	9	514	16	0.266	–
CC(C)(C(=O)O)c1ccc(C(O)CCCN2CCC(C(O)(c3ccccc3)c3ccccc3)CC2)cc1 (stereo not given) [FEXOFENADINE]	–	–	–	–	inhibition in vivo at 30 mg/kg (Mus musculus [20]): 39%
CCCCn1c2c(cc(C(=O)NC3(C(=O)O)CCCCC3)c1=O)CCCCCC2	7	> 2000	56	> 5	–
O=C(NC1(C(=O)O)CCCCC1)c1cc2c(n(CC3CCCO3)c1=O)CCCCCC2 (stereo not given)	–	–	247	> 5	–
CCCCn1c(CCC)c(Br)cc(C(=O)NC2(C(=O)O)CCCCC2)c1=O	–	–	382	> 5	–
N#Cc1ccc(Cn2c3c(cc(C(=O)NC4(C(=O)O)CCCCC4)c2=O)CCCCCC3)cc1	–	–	144	3.95	–
O=C(NC1(C(=O)O)CCCCC1)c1cc2c(n(CC3CCCCC3)c1=O)CCCCCC2	7	76	6.7	0.181	Activity (Mus musculus [21]): Non-toxic
CCCCn1c(CC)c(C)cc(C(=O)NC2(C(=O)O)CCCCC2)c1=O	–	–	348	–	–
CCCc1c(CC)cc(C(=O)NC2(C(=O)O)CCCCC2)c(=O)n1Cc1ccc(F)cc1	–	–	263	> 5	–
COCCn1c2c(cc(C(=O)NC3(C(=O)O)CCCCC3)c1=O)CCCCCC2	–	–	294	> 5	–
CCN1CCCC1Cn1c2c(cc(C(=O)NC3(C(=O)O)CCCCC3)c1=O)CCCCCC2 (stereo not given)	–	–	2110	–	–
